From patent US10093630B2, “Pyrazole compounds and methods of making and using same” (ABIDE THERAPEUTICS, INC., priority 2014, dated 2018)
Read-outs that look alike come from different tables or passages of the source.

Tests used:
Assay in all cases: In vitro competitive activity-based protein profiling (gel-based, FP-Rh or HT-01 probe)
Type in all cases: biochemical
ABHD6 = target: T1, ABHD6 (Mus musculus, UniProt Q8R2Y0); conditions: for inhibition at 1 µM: 1 μM inhibitor, read-out: % Inhibition at 1 μM, C = ABHD6; for inhibition at 10 µM: 10 μM inhibitor, read-out: % Inhibition at 10 μM, C = ABHD6; for IC50: mouse brain membrane fraction or cell lysates, 30 min preincubation at 37° C., read-out: Mouse (IC50 value, nM) ABHD6
T1 construct: Proteomes (mouse brain membrane fraction or cell lysates); from tissue; host or cells: mouse brain membrane fraction (or cell lysates, not specified)
T1 sequence (Q8R2Y0 1-336): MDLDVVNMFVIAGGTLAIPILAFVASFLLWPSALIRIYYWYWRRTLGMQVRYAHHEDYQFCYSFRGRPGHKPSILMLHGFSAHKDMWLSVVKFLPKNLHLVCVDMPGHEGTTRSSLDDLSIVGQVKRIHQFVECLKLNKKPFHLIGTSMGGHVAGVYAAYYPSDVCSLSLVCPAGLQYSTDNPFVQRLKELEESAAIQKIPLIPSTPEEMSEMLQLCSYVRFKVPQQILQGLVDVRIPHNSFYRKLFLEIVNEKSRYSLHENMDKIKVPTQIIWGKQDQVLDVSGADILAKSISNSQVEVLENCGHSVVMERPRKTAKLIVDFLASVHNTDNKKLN
Method in brief: (§1)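 Mouse brain membrane or cell lysate proteomes (1.0 mg/mL) preincubated with inhibitors 30 min at 37° C, then labelled with FP-Rh or HT-01 for 30 min at 37° C. After SDS-PAGE, activity quantified from fluorescent band intensity.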

FAAH = target: T2, FAAH (Mus musculus, UniProt O08914); conditions: for inhibition at 1 µM: 1 μM inhibitor, read-out: % Inhibition at 1 μM, B = FAAH; for inhibition at 10 µM: 10 μM inhibitor, read-out: % Inhibition at 10 μM, B = FAAH; for IC50: mouse brain membrane fraction or cell lysates, 30 min preincubation at 37° C., read-out: Mouse (IC50 value, nM) FAAH
T2 construct: Proteomes (mouse brain membrane fraction or cell lysates); from tissue; host or cells: mouse brain membrane fraction (or cell lysates, not specified)
T2 sequence (O08914 1-579): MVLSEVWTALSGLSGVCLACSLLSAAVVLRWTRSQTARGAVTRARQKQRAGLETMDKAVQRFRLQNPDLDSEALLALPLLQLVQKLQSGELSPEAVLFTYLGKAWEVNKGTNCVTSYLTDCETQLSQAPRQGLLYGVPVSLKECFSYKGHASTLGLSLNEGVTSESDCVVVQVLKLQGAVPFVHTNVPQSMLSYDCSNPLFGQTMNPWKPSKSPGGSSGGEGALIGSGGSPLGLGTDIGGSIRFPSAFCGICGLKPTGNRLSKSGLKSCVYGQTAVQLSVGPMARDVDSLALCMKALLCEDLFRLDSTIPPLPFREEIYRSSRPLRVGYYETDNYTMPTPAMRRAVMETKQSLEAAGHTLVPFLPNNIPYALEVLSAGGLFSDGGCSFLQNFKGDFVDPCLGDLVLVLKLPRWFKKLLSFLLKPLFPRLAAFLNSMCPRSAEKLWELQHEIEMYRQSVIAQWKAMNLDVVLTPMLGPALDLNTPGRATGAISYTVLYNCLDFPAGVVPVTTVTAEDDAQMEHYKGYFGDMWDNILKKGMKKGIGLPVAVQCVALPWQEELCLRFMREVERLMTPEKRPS
Method in brief: as §1

MAGL = target: T3, MAGL (Mus musculus, UniProt O35678); conditions: for inhibition at 1 µM: 1 μM inhibitor; for inhibition at 10 µM: 10 μM inhibitor; for IC50: mouse brain membrane fraction or cell lysates, 30 min preincubation at 37° C., read-out: Mouse (IC50 value, nM) MAGL
T3 construct: Proteomes (mouse brain membrane fraction or cell lysates); from tissue; host or cells: mouse brain membrane fraction (or cell lysates, not specified)
T3 sequence (O35678 1-303): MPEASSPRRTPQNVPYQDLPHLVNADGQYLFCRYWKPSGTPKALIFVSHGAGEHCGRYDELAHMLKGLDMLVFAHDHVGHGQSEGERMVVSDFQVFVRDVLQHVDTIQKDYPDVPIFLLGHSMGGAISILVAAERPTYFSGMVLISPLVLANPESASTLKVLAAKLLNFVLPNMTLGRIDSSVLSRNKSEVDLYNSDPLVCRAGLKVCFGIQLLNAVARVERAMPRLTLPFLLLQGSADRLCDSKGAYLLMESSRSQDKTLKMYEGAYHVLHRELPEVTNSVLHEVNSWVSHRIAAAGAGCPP
Method in brief: as §1

PLA2G7 = target: T4, PLA2G7 (Mus musculus, UniProt Q60963); conditions: for inhibition at 1 µM: 1 μM inhibitor, read-out: % Inhibition at 1 μM, D = PLA2G7; for inhibition at 10 µM: 10 μM inhibitor, read-out: % Inhibition at 10 μM, D = PLA2G7; for IC50: mouse brain membrane fraction or cell lysates, 30 min preincubation at 37° C.
T4 construct: Proteomes (mouse brain membrane fraction or cell lysates); from tissue; host or cells: mouse brain membrane fraction (or cell lysates, not specified)
T4 sequence (Q60963 22-440): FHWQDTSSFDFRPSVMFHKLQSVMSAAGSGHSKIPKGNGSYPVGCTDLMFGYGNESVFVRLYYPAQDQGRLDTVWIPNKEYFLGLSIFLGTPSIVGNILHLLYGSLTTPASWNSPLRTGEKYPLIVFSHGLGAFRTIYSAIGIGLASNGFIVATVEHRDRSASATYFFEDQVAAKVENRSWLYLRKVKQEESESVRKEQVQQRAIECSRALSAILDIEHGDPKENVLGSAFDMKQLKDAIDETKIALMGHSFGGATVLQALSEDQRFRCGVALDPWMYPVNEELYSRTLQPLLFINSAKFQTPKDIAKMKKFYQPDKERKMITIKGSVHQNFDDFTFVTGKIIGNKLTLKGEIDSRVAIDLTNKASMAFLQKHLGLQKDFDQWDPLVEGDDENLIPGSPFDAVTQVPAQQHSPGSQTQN
Method in brief: as §1

CC(=O)N1CCCN(C(=O)n2cc(C(F)(F)F)cn2)CC1 [Example 154, 1-(4-(4-(trifluoromethyl)-1H-pyrazole-1-carbonyl)-1,4-diazepan-1-yl)ethanone]
inhibition at 1 µM (ABHD6): < 25%
inhibition at 10 µM (ABHD6): > 75%
inhibition at 1 µM (FAAH): < 25%
inhibition at 10 µM (FAAH): 25 to 75%
inhibition at 1 µM (MAGL): < 25%
inhibition at 10 µM (MAGL): < 25%
inhibition at 1 µM (PLA2G7): 25 to 75%
inhibition at 10 µM (PLA2G7): > 75%

Cc1cc(-c2ccccc2)ccc1CN1CCN(C(=O)n2cc(Cl)cn2)CC1 [Example 137, (4-Chloro-1H-pyrazol-1-yl)(4-((3-methylbiphenyl-4-yl)methyl)piperazin-1-yl)methanone]
inhibition at 1 µM (ABHD6): > 75%
inhibition at 10 µM (ABHD6): > 75%
IC50 (ABHD6): 100 to 1000 nM
inhibition at 1 µM (FAAH): > 75%
inhibition at 10 µM (FAAH): > 75%
IC50 (FAAH): < 100 nM
inhibition at 1 µM (MAGL): > 75%
inhibition at 10 µM (MAGL): > 75%
IC50 (MAGL): < 100 nM
inhibition at 1 µM (PLA2G7): < 25%
inhibition at 10 µM (PLA2G7): 25 to 75%
IC50 (PLA2G7): > 1000 nM

COc1cc(-c2ccccc2)ccc1CN1CCN(C(=O)n2cc(C(=O)N3CCCC3)cn2)CC1 [Example 290, (4-((3-Methoxybiphenyl-4-yl)methyl)piperazin-1-yl)(4-(pyrrolidine-1-carbonyl)-1H-pyrazol-1-yl)methanone]
inhibition at 1 µM (ABHD6; gel-based competitive ABPP): > 75%
inhibition at 10 µM (ABHD6; gel-based competitive ABPP): > 75%
inhibition at 1 µM (FAAH; gel-based competitive ABPP): > 75%
inhibition at 10 µM (FAAH; gel-based competitive ABPP): > 75%
inhibition at 1 µM (MAGL; gel-based competitive ABPP): > 75%
inhibition at 10 µM (MAGL; gel-based competitive ABPP): > 75%
inhibition at 1 µM (PLA2G7; gel-based competitive ABPP): < 25%
inhibition at 10 µM (PLA2G7; gel-based competitive ABPP): > 75%

O=C(N1CCCC1)n1cc(C(F)(F)F)cn1 [Example 199, Pyrrolidin-1-yl(4-(trifluoromethyl)-1H-pyrazol-1-yl)methanone]
inhibition at 1 µM (ABHD6): 25 to 75%
inhibition at 10 µM (ABHD6): > 75%
inhibition at 1 µM (FAAH): > 75%
inhibition at 10 µM (FAAH): > 75%
inhibition at 1 µM (MAGL): < 25%
inhibition at 10 µM (MAGL): > 75%
inhibition at 1 µM (PLA2G7): 25 to 75%
inhibition at 10 µM (PLA2G7): > 75%

N#Cc1cnn(C(=O)N2CCN(Cc3ccc(C(=O)N4CCC4)cc3F)CC2)c1 [Example 285, 1-(4-(4-(Azetidine-1-carbonyl)-2-fluorobenzyl)piperazine-1-carbonyl)-1H-pyrazole-4-carbonitrile]
inhibition at 1 µM (ABHD6; gel-based competitive ABPP): > 75%
inhibition at 10 µM (ABHD6; gel-based competitive ABPP): > 75%
inhibition at 1 µM (FAAH; gel-based competitive ABPP): > 75%
inhibition at 10 µM (FAAH; gel-based competitive ABPP): > 75%
inhibition at 1 µM (MAGL; gel-based competitive ABPP): > 75%
inhibition at 10 µM (MAGL; gel-based competitive ABPP): > 75%
inhibition at 1 µM (PLA2G7; gel-based competitive ABPP): > 75%
inhibition at 10 µM (PLA2G7; gel-based competitive ABPP): > 75%

Cc1cnn(C(=O)N2CCCN(C(=O)OC(C)(C)C)CC2)c1 [Example 26, tert-Butyl 4-(4-methyl-1H-pyrazole-1-carbonyl)-1,4-diazepane-1-carboxylate]
inhibition at 1 µM (ABHD6): 25 to 75%
inhibition at 10 µM (ABHD6): > 75%
inhibition at 1 µM (FAAH): 25 to 75%
inhibition at 10 µM (FAAH): > 75%
inhibition at 1 µM (MAGL): < 25%
inhibition at 10 µM (MAGL): 25 to 75%
inhibition at 1 µM (PLA2G7): < 25%
inhibition at 10 µM (PLA2G7): < 25%

O=C(N1CCCCC1)n1cc(-c2ccccc2)cn1 [Example 136, (4-Phenyl-1H-pyrazol-1-yl)(piperidin-1-yl)methanone]
inhibition at 1 µM (ABHD6): > 75%
inhibition at 10 µM (ABHD6): > 75%
inhibition at 1 µM (FAAH): > 75%
inhibition at 10 µM (FAAH): > 75%
inhibition at 1 µM (MAGL): < 25%
inhibition at 10 µM (MAGL): < 25%
inhibition at 1 µM (PLA2G7): > 75%
inhibition at 10 µM (PLA2G7): > 75%

O=C(N1CCN(Cc2ccccc2Cl)CC1)n1cc(Cl)cn1 [Example 224, (4-Chloro-1H-pyrazol-1-yl)(4-(2-chlorobenzyl)piperazin-1-yl)methanone]
inhibition at 1 µM (ABHD6): > 75%
IC50 (ABHD6): 100 to 1000 nM
inhibition at 1 µM (FAAH): > 75%
IC50 (FAAH): 100 to 1000 nM
inhibition at 1 µM (MAGL): > 75%
IC50 (MAGL): < 100 nM
inhibition at 1 µM (PLA2G7): < 25%
IC50 (PLA2G7): 100 to 1000 nM

CC(C)c1cnn(C(=O)N2CCN(Cc3c(N4CCCC4)cccc3C(F)(F)F)CC2)c1 [Example 112, (4-Isopropyl-1H-pyrazol-1-yl)(4-(2-(pyrrolidin-1-yl)-6-(trifluoromethyl)benzyl)piperazin-1-yl)methanone]
inhibition at 1 µM (ABHD6): > 75%
inhibition at 10 µM (ABHD6): > 75%
IC50 (ABHD6): 100 to 1000 nM
inhibition at 1 µM (FAAH): < 25%
inhibition at 10 µM (FAAH): < 25%
inhibition at 1 µM (MAGL): < 25%
inhibition at 10 µM (MAGL): > 75%
inhibition at 1 µM (PLA2G7): < 25%
inhibition at 10 µM (PLA2G7): > 75%

Cc1cc(-c2ccccc2)ccc1CN1CCN(C(=O)n2cc(C(=O)N3CCC3)cn2)CC1 [Example 93, Azetidin-1-yl(1-(4-((3-methyl-[1,1′-biphenyl]-4-yl)methyl)piperazine-1-carbonyl)-1H-pyrazol-4-yl)methanone]
inhibition at 1 µM (ABHD6): > 75%
inhibition at 10 µM (ABHD6): > 75%
IC50 (ABHD6): 100 to 1000 nM
inhibition at 1 µM (FAAH): > 75%
inhibition at 10 µM (FAAH): > 75%
IC50 (FAAH): < 100 nM
inhibition at 1 µM (MAGL): > 75%
inhibition at 10 µM (MAGL): > 75%
IC50 (MAGL): 100 to 1000 nM
inhibition at 1 µM (PLA2G7): < 25%
inhibition at 10 µM (PLA2G7): > 75%

NC(=O)c1cnn(C(=O)N2CCN(Cc3ccc(Cl)cc3)CC2)c1 [Example 204, 1-(4-(4-chlorobenzyl)piperazine-1-carbonyl)-1H-pyrazole-4-carboxamide]
inhibition at 1 µM (ABHD6): > 75%
IC50 (ABHD6): < 100 nM
inhibition at 1 µM (FAAH): > 75%
IC50 (FAAH): 100 to 1000 nM
inhibition at 1 µM (MAGL): > 75%
IC50 (MAGL): < 100 nM
inhibition at 1 µM (PLA2G7): < 25%
IC50 (PLA2G7): > 1000 nM

CN1CCN(C(=O)n2cc(C#N)cn2)CC1 [Example 175, 1-(4-Methylpiperazine-1-carbonyl)-1H-pyrazole-4-carbonitrile]
inhibition at 1 µM (ABHD6): > 75%
inhibition at 10 µM (ABHD6): > 75%
inhibition at 1 µM (FAAH): 25 to 75%
inhibition at 10 µM (FAAH): > 75%
inhibition at 1 µM (MAGL): 25 to 75%
inhibition at 10 µM (MAGL): > 75%
inhibition at 1 µM (PLA2G7): < 25%
inhibition at 10 µM (PLA2G7): > 75%

N#Cc1cnn(C(=O)NCc2ccc3ccccc3c2)c1 [Example 45, 4-Cyano-N-(naphthalen-2-ylmethyl)-1H-pyrazole-1-carboxamide]
inhibition at 1 µM (ABHD6): < 25%
inhibition at 10 µM (ABHD6): < 25%
inhibition at 1 µM (FAAH): < 25%
inhibition at 10 µM (FAAH): > 75%
inhibition at 1 µM (MAGL): < 25%
inhibition at 10 µM (MAGL): 25 to 75%
inhibition at 1 µM (PLA2G7): < 25%
inhibition at 10 µM (PLA2G7): < 25%
